Laboratory results from patent US4492650A, “A54556 Antibiotics and process for production thereof” (Eli Lilly and Company, priority 1982, dated 1985).
Values after ≈ are worked out from the molar mass of the structure shown. Values joined by “and” are separate entries in the source; they are usually repeats but may differ in a detail not shown here. Equal entries are not always repeated. Where two headings read alike, the source gives them in different places. Bridge positions count the residues as written; N and C are the ends. Square brackets hold non-standard residues; d marks the D form. Peptide text beside a SMILES is read from it. * marks the point of attachment. ξ: configuration not given here. Hexadienoyl(2E,4E) = C/C=C/C=C/C(=O)*; ξPro(4ξ-Me) = CC1CNC(C(=O)O)C1; NMeA = CN[CH](C)C(=O)O

Key:
[1] = system: Streptococcus sp. (Group D) X66; test: Disc-plate sensitivity; type: cell-based; settings: second test, Table 13; for zone of inhibition at 30 µg/disc / zone of inhibition at 300 µg/disc: Streptococcus
Electrometric titration = type: physicochemical; settings: 66 percent dimethylformamide in water
From the text: Antibiotic A54556 factor A is a tan, amorphous solid. […] As determined by electron impact and field desorption mass spectrometry, A54556 factor A has a molecular weight of 718.

[2] = system: Staphylococcus aureus 3055; settings: second test, Table 13, benzylpenicillin-susceptible
[3] = system: Clostridium perfringens 81; test: microbe, parasite or virus in culture; type: cell-based
[4] = system: Peptostreptococcus anaerobius 1428; test: MIC, agar-dilution method; type: cell-based
[5] = system: experimental bacterial infections; test: In vivo antimicrobial activity against experimental bacterial infections; settings: mice, subcutaneously
Procedure: (§1) When two doses of test compound were administered subcutaneously to mice in illustrative infections, the activity is measured as an ED50 value [effective does in mg./kg. to protect fifty percent of the test animals: See Warren Wick et al., J. Bacteriol. 81, 233-235 (1961)]. The ED50 values for these antibiotic A54556 factors are recorded in Table 15, which follows.

[6] = system: Fusobacterium symbiosum 1470; test: MIC, agar-dilution method; type: cell-based
anaerobic bacteria = test: Activity against anaerobic bacteria; type: cell-based; settings: agar-dilution method
[7] = system: Bacteroides vulgatis 1211; test: MIC, agar-dilution method; type: cell-based
[8] = system: Streptococcus pyogenes (Group A) C203; settings: second test, Table 13
[9] = system: Streptococcus pneumoniae Park I; settings: second test, Table 13
Solubility = settings: lower alcohols (methyl, ethyl, isopropyl, n-propyl, n-butyl), acetone, ethyl acetate, tetrahydrofuran, pyridine, dimethyl sulfoxide
S. pyogenes = test: In vivo protection against experimental bacterial infection in mice; settings: Streptococcus pyogenes, sc, two doses subcutaneously
Procedure: as §1

[10] = system: Staphylococcus epidermidis EPI1; settings: second test, Table 13
[11] = system: Bacteroides corrodens 1874; test: MIC, agar-dilution method; type: cell-based; settings: Eikenella corrodens
Bacteroides fragilis 111 = test: MIC, agar-dilution method; type: cell-based
From the text: (§2) Antibiotic A54556 factors A, B, C, D, E, F, G, and H have been tested and found to be active against a number of anaerobic bacteria, as recorded in Table 14, which follows, the MIC values having been determined by the agar-dilution method.

[12] = system: Propionibacterium acnes 79; test: MIC, agar-dilution method; type: cell-based; settings: Cutibacterium acnes
From the text: as §2

[13] = system: Bacteroides melaninogenicus 1856/28; test: MIC, agar-dilution method; type: cell-based; settings: Prevotella intermedia
From the text: as §2

[14] = system: Peptostreptococcus intermedius 1264; test: MIC, agar-dilution method; type: cell-based
From the text: as §2

[15] = system: Bacteroides fragilis 1936B; test: MIC, agar-dilution method; type: cell-based
From the text: as §2

[16] = system: Fusobacterium necrophorum 6054A; test: MIC, agar-dilution method; type: cell-based
From the text: as §2

[17] = system: Eubacterium aerofaciens 1235; test: MIC, agar-dilution method; type: cell-based; settings: Collinsella aerofaciens
From the text: as §2

[18] = system: Bacteroides thetaiotaomicron 1438; test: MIC, agar-dilution method; type: cell-based
From the text: as §2

[19] = system: Clostridium septicum 1128; test: MIC, agar-dilution method; type: cell-based
From the text: as §2

[20] = system: Bacteroides melaninogenicus 2736; test: MIC, agar-dilution method; type: cell-based
From the text: as §2

[21] = system: Bacteroides fragilis 1877; test: MIC, agar-dilution method; type: cell-based
From the text: as §2

[22] = system: Clostridium difficile 2994; test: MIC, agar-dilution method; type: cell-based; settings: Clostridioides difficile
From the text: as §2

Peptococcus prevoti 1281 = test: MIC, agar-dilution method; type: cell-based
[23] = system: Staphylococcus aureus V41; settings: second test, Table 13, benzylpenicillin resistant
[24] = system: Peptococcus asaccharolyticus 1302; test: MIC, agar-dilution method; type: cell-based; settings: Peptoniphilus asaccharolyticus

For `C/C=C/C=C/C(=O)NC(Cc1ccccc1)C(=O)NC1COC(=O)C2CCCN2C(=O)C(C)NC(=O)C(C)N(C)C(=O)C2CC(C)CN2C1=O` (centres unmarked) [Factor C] ({Hexadienoyl(2E,4E)}-FS[ξPro(4ξ-Me)][NMeA]AP; ester 2-C; configuration not given here), the Zone diameter ([1]; 30 mcg./disc) was 25 mm, the Zone diameter ([1]; 300 mcg./disc, listed as C) was 35 mm and the zone of inhibition at 30 µg/disc ([1]; 30 mcg./disc, read-out: Zone diameter) was 24 mm. The zone of inhibition at 300 µg/disc ([1]; 300 mcg./disc, read-out: Zone diameter) was 25 mm, the titratable groups (Electrometric titration) was “no titratable groups” and the Zone diameter ([2]; 30 mcg./disc) was 21 mm. and 23 mm. For the same compound, the Zone diameter ([2]; 300 mcg./disc) was 25 mm. and 31 mm, the MIC [3] was greater than 128 µg/mL and the MIC [4] was greater than 128 µg/mL. The “in vivo antimicrobial activity against experimental bacterial infections” value [5] was “have shown in vivo antimicrobial activity”, the MIC [6] was greater than 128 µg/mL and the “activity against a number of anaerobic bacteria” value (anaerobic bacteria) was “active”. For the same compound, the MIC [7] was greater than 128 µg/mL, the Zone diameter ([8]; 30 mcg./disc) was 22 mm. and 28 mm and the Zone diameter ([8]; 300 mcg./disc) was 30 mm. For the same compound, the Zone diameter ([8]; 300 mcg./disc, listed as C) was 33 mm, the Zone diameter ([9]; 30 mcg./disc) was 25 mm. and 30 mm and the Zone diameter ([9]; 300 mcg./disc) was 30 mm. For the same compound, the Zone diameter ([9]; 300 mcg./disc, listed as C) was 35 mm, the “solubility in organic solvents” value (Solubility) was “soluble” and the ED50 (S. pyogenes) was 11.1 mg/kg. For the same compound, the Zone diameter ([10]; 30 mcg./disc) was 21 mm. and 23 mm, the Zone diameter ([10]; 300 mcg./disc) was 24 mm and the Zone diameter ([10]; 300 mcg./disc, listed as C) was 26 mm. For the same compound, the MIC [11] was greater than 128 µg/mL, the MIC (Bacteroides fragilis 111) was greater than 128 µg/mL and the MIC [12] was 32 µg/mL (≈ 46.2 µM). It also gave an MIC [13] greater than 128 µg/mL, an MIC [14] greater than 128 µg/mL and an MIC [15] greater than 128 µg/mL. It also gave an MIC [16] greater than 128 µg/mL, an MIC [17] greater than 128 µg/mL and an MIC [18] greater than 128 µg/mL. The MIC [19] was greater than 128 µg/mL, the MIC [20] was greater than 128 µg/mL and the MIC [21] was greater than 128 µg/mL. The MIC [22] was greater than 128 µg/mL, the MIC (Peptococcus prevoti 1281) was greater than 128 µg/mL and the Zone diameter ([23]; 30 mcg./disc) was 24 mm. For the same compound, the Zone diameter ([23]; 30 mcg./disc, listed as C) was 21 mm, the Zone diameter ([23]; 300 mcg./disc) was 30 mm. and 25 mm and the MIC ([24]; agar-dilution, read-out: MIC) was 16 µg/mL (≈ 23.1 µM).
In the case of `C/C=C/C=C/C(=O)NC(Cc1ccccc1)C(=O)NC1COC(=O)C2CCCN2C(=O)C(C)NC(=O)C(C)N(C)C(=O)C2CCCN2C1=O` (centres unmarked) [Factor E] ({Hexadienoyl(2E,4E)}-FSP[NMeA]AP; ester 2-C; configuration not given here), the Zone diameter ([1]; 30 mcg./disc, listed as E) is reported as 21 mm, the Zone diameter ([1]; 300 mcg./disc) is reported as 27 mm and the zone of inhibition at 30 µg/disc ([1]; read-out: Zone diameter, 30 mcg./disc) is reported as 22 mm. For the same compound, the zone of inhibition at 300 µg/disc ([1]; read-out: Zone diameter, 300 mcg./disc) was 28 mm, the titratable groups (Electrometric titration) was “no titratable groups” and the Zone diameter ([2]; 30 mcg./disc) was 17 mm. It also gave a Zone diameter ([2]; 30 mcg./disc, listed as E) of 15 mm, a Zone diameter ([2]; 300 mcg./disc) of 23 mm and an MIC [3] greater than 128 µg/mL. The MIC [4] was greater than 128 µg/mL, the “in vivo antimicrobial activity against experimental bacterial infections” value [5] was “have shown in vivo antimicrobial activity” and the MIC [6] was 128 µg/mL (≈ 189 µM). The “activity against a number of anaerobic bacteria” value (anaerobic bacteria) was “active”, the MIC [7] was greater than 128 µg/mL and the Zone diameter ([8]; 30 mcg./disc, listed as E) was 20 mm. and 18 mm. For the same compound, the Zone diameter ([8]; 300 mcg./disc) was 30 mm. and 24 mm, the Zone diameter ([9]; 30 mcg./disc) was 25 mm and the Zone diameter ([9]; 30 mcg./disc, listed as E) was 22 mm. The Zone diameter ([9]; 300 mcg./disc) was 35 mm. and 28 mm, the “solubility in organic solvents” value (Solubility) was “soluble” and the ED50 (S. pyogenes) was greater than 70 mg/kg. The Zone diameter ([10]; 30 mcg./disc, listed as E) was 13 mm. and 11 mm, the Zone diameter ([10]; 300 mcg./disc) was 25 mm. and 24 mm and the MIC [11] was greater than 128 µg/mL. The MIC (Bacteroides fragilis 111) was greater than 128 µg/mL, the MIC [12] was greater than 128 µg/mL and the MIC [13] was greater than 128 µg/mL. The MIC [14] was greater than 128 µg/mL, the MIC [15] was greater than 128 µg/mL and the MIC [16] was greater than 128 µg/mL. It also gave an MIC [17] greater than 128 µg/mL, an MIC [18] greater than 128 µg/mL and an MIC [19] greater than 128 µg/mL. The MIC [20] was greater than 128 µg/mL, the MIC [21] was greater than 128 µg/mL and the MIC [22] was greater than 128 µg/mL. The MIC (Peptococcus prevoti 1281) was 128 µg/mL (≈ 189 µM), the Zone diameter ([23]; 30 mcg./disc) was 17 mm and the Zone diameter ([23]; 30 mcg./disc, listed as E) was 13 mm. The Zone diameter ([23]; 300 mcg./disc) was 27 mm. and 23 mm and the MIC [24] was 64 µg/mL (≈ 94.3 µM).
